The values below are quoted from earlier work in patent publication US6444700B1, “Product and method to reduce stress induced immune suppression” (Abbott Laboratories, priority 1998, dated 2002).

`CC1=C(/C=C/C(C)=C/C=C/C(C)=C/CO)C(C)(C)CCC1` [Vitamin A, retinol]: the “sustained daily intake at which signs of toxicity usually appear” value (foods and supplements) is “exceeding 15,000 RE”. For `[Se]` [selenium], the “intake from foods resulting in fingernail changes and hair loss” value (seleniferous zone of China) is “approximately 5 mg per day”. As to `CC1=C(/C=C/C(C)=C/C=C/C(C)=C/C=C/C=C(C)/C=C/C=C(C)/C=C/C2=C(C)CCCC2(C)C)C(C)(C)CCC1` [β-Carotene], the “toxicity when given in very high doses” value (compared with vitamin A) is on record as “not toxic”.
